In one assay the test system is colitis ulcerosa. The note with it: cited from earlier work.
For the next assay, the system named is colon mucosa. Particulars: topic application, rat models, colitis induced by acetic acid and trinitro-benzosulfonic acid; cited from earlier work.
Assay [1] deals with HepG2-cells (hepatocytes). Kind of assay: Selective enrichment of fluorescence-marked conjugate in HepG2-cells, fluorescence microscopy. The format is cell-based. Particulars: 50 uM, 37° C., 10 min., washed, treated with 5% beef-serum albumin. The protocol:
In order to control the selective enrichment of the LysoPE-DOCA-compound HepG2-cells (hepatocytes) were incubated at 37° C. with a fluorescence-marked ursodeoxycholate-1-palmitoyl, 2-NBD-PE-conjugate (at 50 uM) for 10 min., washed, and subsequently treated with 5% beef-serum albumin in order to remove the conjugate from the exterior plasma membrane of the cells. Subsequently the cells are microscopic controlled in phase contrast and in fluorescent light.

The mark [2] stands for this setting: oral, retarding packaged form, compared to placebo control group.

Turning to phosphatidyl choline, the “inflammatory activity of colitis ulcerosa” value with colitis ulcerosa (oral, retarding packaged form with release in the lower small intestine and the colon) was “significantly suppresses the inflammatory activity”. Further, in the assay on colitis ulcerosa (setting [2]), the “improvement of the clinical activity on average” value is recorded as 70% and the “patients treated in whom the improvement of clinical activity was achieved” value is recorded as 90%. For the same substance, the “patients reaching clinical remission” value with colitis ulcerosa (within three months) was “more than half of the patients reached even clinical remission”. The “protection of colon mucosa from induced colitis” value in the assay on colon mucosa is given as “protecting colon mucosa from colitis”.
With “ursodeoxycholate-1-palmitoyl, 2-NBD-PE-conjugate”, the “enrichment in the cells under fluorescent-microscopic observation” value in assay [1] was “intense yellow-green coloration in the cytoplasm but not in the core of the cell”.
